Assay results taken from US9309198B2, “N-[3-(2-carboxyethyl)phenyl]piperidin-1-ylacetamide derivatives and use thereof as activators of soluble guanylate cyclase” (Bayer Pharma Aktiengesellschaft, priority 2012, dated 2016).

Experiments:
[1] = target: T1, recombinant soluble guanylate cyclase (sGC), haem-free (Rattus norvegicus, UniProt P20595); experiment: Stimulation of recombinant soluble guanylate cyclase (sGC) in vitro, haem-free enzyme; format: biochemical; settings: n = 2
T1 construct: made in house
T1 sequence (P20595 1-619): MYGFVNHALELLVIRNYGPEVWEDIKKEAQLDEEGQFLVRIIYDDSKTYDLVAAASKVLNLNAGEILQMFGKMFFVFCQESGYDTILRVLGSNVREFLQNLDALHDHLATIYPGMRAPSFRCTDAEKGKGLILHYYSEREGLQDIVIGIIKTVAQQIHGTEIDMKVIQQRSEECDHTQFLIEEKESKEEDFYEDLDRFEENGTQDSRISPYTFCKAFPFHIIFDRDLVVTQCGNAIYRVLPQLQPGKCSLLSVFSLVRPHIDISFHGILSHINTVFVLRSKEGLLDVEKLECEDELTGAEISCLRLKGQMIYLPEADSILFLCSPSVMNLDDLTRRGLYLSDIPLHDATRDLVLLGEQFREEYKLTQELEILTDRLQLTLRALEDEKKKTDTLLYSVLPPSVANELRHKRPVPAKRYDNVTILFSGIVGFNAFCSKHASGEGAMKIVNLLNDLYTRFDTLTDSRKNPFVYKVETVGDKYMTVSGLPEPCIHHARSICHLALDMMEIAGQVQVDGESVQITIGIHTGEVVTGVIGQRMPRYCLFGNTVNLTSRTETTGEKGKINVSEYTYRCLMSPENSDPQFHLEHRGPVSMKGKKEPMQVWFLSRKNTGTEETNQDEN
T1 sequence (P19686 1-690 partner): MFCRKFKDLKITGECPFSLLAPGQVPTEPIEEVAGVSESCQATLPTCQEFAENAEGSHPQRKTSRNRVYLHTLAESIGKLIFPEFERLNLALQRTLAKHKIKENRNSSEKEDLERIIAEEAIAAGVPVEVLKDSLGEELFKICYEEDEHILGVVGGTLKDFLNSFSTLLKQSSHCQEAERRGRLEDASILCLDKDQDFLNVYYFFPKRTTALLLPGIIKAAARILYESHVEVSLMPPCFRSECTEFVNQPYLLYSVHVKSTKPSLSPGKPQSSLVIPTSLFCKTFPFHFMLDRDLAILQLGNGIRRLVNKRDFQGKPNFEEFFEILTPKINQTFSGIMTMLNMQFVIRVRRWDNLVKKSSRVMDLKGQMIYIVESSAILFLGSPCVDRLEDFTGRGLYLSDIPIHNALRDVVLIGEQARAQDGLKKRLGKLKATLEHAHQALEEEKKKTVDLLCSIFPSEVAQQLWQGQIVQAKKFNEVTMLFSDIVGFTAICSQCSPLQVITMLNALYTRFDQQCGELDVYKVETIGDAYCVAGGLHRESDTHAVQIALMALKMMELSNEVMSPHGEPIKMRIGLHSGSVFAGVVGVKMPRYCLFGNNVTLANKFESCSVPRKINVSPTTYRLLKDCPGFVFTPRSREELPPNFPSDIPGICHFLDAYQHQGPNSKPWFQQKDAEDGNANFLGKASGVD
Method: (§1) B-1. Stimulation of Recombinant Soluble Guanylate Cyclase (sGC) In Vitro
The investigations on the stimulation of recombinant soluble guanylate cyclase (sGC) by the compounds according to the invention with and without sodium nitroprusside and with and without the haem-dependent sGC inhibitor 1H-1,2,4-oxadiazolo[4,3-a]quinoxalin-1-one (ODQ) are carried out by the method described in detail in the following literature reference: M. Hoenicka, E. M. Becker, H. Apeler, T. Sirichoke, H. Schroeder, R. Gerzer and J.-P. Stasch, “Purified soluble guanylyl cyclase expressed in a baculovirus/Sf9 system: Stimulation by YC-1, nitric oxide, and carbon oxide”, J. Mol. Med. 77 (1999), 14-23. Haem-free guanylate cyclase is obtained by adding Tween 20 to the sample buffer (final concentration 0.5%).
(§2) Activation of sGC by a test substance is stated as x-fold stimulation of basal activity.

[2] = target: T2, recombinant soluble guanylate cyclase (sGC), haem-containing (Rattus norvegicus, UniProt P20595); experiment: Stimulation of recombinant soluble guanylate cyclase (sGC) in vitro, haem-containing enzyme; format: biochemical; settings: for Stimulation (x-times) of haem-containing sGC, Basal: n = 2
T2 construct: made in house
T2 sequence (P20595 1-619): T1 sequence (P20595 1-619)
T2 sequence (P19686 1-690 partner): T1 sequence (P19686 1-690 partner)
From the text: as §1
Hoenicka, E. M. Becker, H. Apeler, T. Sirichoke, H. Schroeder, R. Gerzer and J.-P. Stasch, “Purified soluble guanylyl cyclase expressed in a baculovirus/Sf9 system: Stimulation by YC-1, nitric oxide, and carbon oxide”, J. Mol. Med. 77 (1999), 14-23. Haem-free guanylate cyclase is obtained by adding Tween 20 to the sample buffer (final concentration 0.5%).
as §2

[3] = target: T3, soluble guanylate cyclase (sGC) (Rattus norvegicus, UniProt P20595); experiment: Stimulation of sGC enzyme activity (PPi detection, luciferase luminescence); format: biochemical
T3 construct: made in house
T3 sequence (P20595 1-619): T1 sequence (P20595 1-619)
T3 sequence (P19686 1-690 partner): T1 sequence (P19686 1-690 partner)
Method: B-3. Stimulation of sGC Enzyme Activity
Soluble guanylate cyclase (sGC) converts on stimulation GTP into cGMP and pyrophosphate (PPi). PPi is detected with the aid of the assay described below. The signal produced in the assay increases as the reaction progresses and serves as a measure of the sGC enzyme activity under the given stimulation.
To carry out the assay, 29 μl of enzyme solution [0-10 nM soluble guanylate cyclase (prepared according to Hönicka et al., J. Mol. Med. 77, 14-23 (1999)) in 50 mM TEA, 2 mM MgCl2, 0.1% BSA (fraction V), 0.005% Brij®, pH 7.5] are initially introduced into a microplate, and 1 μl of the substance to be tested (as a serially diluted solution in DMSO) is added. The mixture is incubated at room temperature for 10 min. Then 20 μl of detection mix [1.2 nM Firefly Luciferase (Photinus pyralis luciferase, Promega), 29 μM dehydroluciferin (prepared according to Bitler & McElroy, Arch. Biochem. Biophys. 72, 358 (1957)), 122 μM luciferin (Promega), 153 μM ATP (Sigma) and 0.4 mM DTT (Sigma) in 50 mM TEA, 2 mM MgCl2, 0.1% BSA (fraction V), 0.005% Brij®, pH 7.5] are added. The enzyme reaction is started by adding 20 μl of substrate solution [1.25 mM guanosine 5′-triphosphate (Sigma) in 50 mM TEA, 2 mM MgCl2, 0.1% BSA (fraction V), 0.005% Brij®, pH 7.5] and measured continuously in a luminometer. The extent of the stimulation by the substance to be tested can be determined relative to the signal of the unstimulated reaction.
The activation of haem-free guanylate cyclase is examined by addition of 25 μM of 1H-1,2,4-oxadiazolo[4,3-a]quinoxalin-1-one (ODQ) to the enzyme solution and subsequent incubation for 30 minutes and compared to the stimulation of the native enzyme.

[4] = target: T4, recombinant guanylate cyclase reporter cell line (sGC, CHO reporter cell) (Rattus norvegicus, UniProt P20595); experiment: Effect on a recombinant guanylate cyclase reporter cell line (CHO reporter cell); format: cell-based
T4 construct: expressed in transfected cells; host or cells: CHO reporter cell line
T4 sequence (P20595 1-619): T1 sequence (P20595 1-619)
T4 sequence (P19686 1-690 partner): T1 sequence (P19686 1-690 partner)
Method: B-2. Effect on a Recombinant Guanylate Cyclase Reporter Cell Line The cellular activity of the compounds according to the invention is determined using a recombinant guanylate cyclase reporter cell line, as described in F. Wunder et al., Anal. Biochem. 339, 104-112 (2005).

- Stimulation (x-times) of haem-free sGC, Basal ([1]; 0.01 μM Example 25): 1.9 ± 0.8 x-times
- Stimulation (x-times) of haem-free sGC, Basal ([1]; 0.1 μM Example 25): 2.4 ± 0.8 x-times
- Stimulation (x-times) of haem-free sGC, Basal ([1]; 1.0 μM Example 25): 7.3 ± 3.6 x-times
- Stimulation (x-times) of haem-free sGC, Basal ([1]; 10 μM Example 25): 26.6 ± 7.3 x-times
- Stimulation (x-times) of haem-containing sGC, +0.01 μM DEA/NO ([2]; 0.01 μM Example 25 + 0.01 μM DEA/NO): 11.4 ± 3.9 x-times
- Stimulation (x-times) of haem-containing sGC, +10 μM ODQ ([2]; 0.01 μM Example 25 + 10 μM ODQ): 2.3 ± 0.1 x-times
- Stimulation (x-times) of haem-containing sGC, Basal ([2]; 0.01 μM Example 25): 0.9 ± 0.2 x-times
- Stimulation (x-times) of haem-containing sGC, +0.01 μM DEA/NO ([2]; 0.1 μM Example 25 + 0.01 μM DEA/NO): 11.9 ± 4.2 x-times
- Stimulation (x-times) of haem-containing sGC, +10 μM ODQ ([2]; 0.1 μM Example 25 + 10 μM ODQ): 2.7 ± 0.2 x-times
- Stimulation (x-times) of haem-containing sGC, Basal ([2]; 0.1 μM Example 25): 0.9 ± 0.0 x-times
- Stimulation (x-times) of haem-containing sGC, +0.01 μM DEA/NO ([2]; 1.0 μM Example 25 + 0.01 μM DEA/NO): 12.0 ± 3.9 x-times
- Stimulation (x-times) of haem-containing sGC, +10 μM ODQ ([2]; 1.0 μM Example 25 + 10 μM ODQ): 10.5 ± 2.4 x-times
- Stimulation (x-times) of haem-containing sGC, Basal ([2]; 1.0 μM Example 25): 2.8 ± 0.4 x-times
- Stimulation (x-times) of haem-containing sGC, +0.01 μM DEA/NO ([2]; 10 μM Example 25 + 0.01 μM DEA/NO): 15.1 ± 2.9 x-times
- Stimulation (x-times) of haem-containing sGC, +10 μM ODQ ([2]; 10 μM Example 25 + 10 μM ODQ): 32.5 ± 5.4 x-times
- Stimulation (x-times) of haem-containing sGC, Basal ([2]; 10 μM Example 25): 8.6 ± 0.2 x-times
- Effect of combination with the NO donor DEA/NO on sGC stimulation ([2]; combination with DEA/NO, haem-containing sGC): no synergistic effect
- MEC (minimum effective concentration), activating action at the sGC enzyme in vitro [3]: 2.2 nM
- EC50 ([3]; read-out: EC50 (half-maximal effective concentration), activating action at the sGC enzyme in vitro): 15 nM
- MEC (minimum effective concentration), sGC-activating activity in the CHO reporter cell in vitro [4]: 1 nM
Compound: C[C@H]([C@H](C(=O)Nc1cc(CC2(C(=O)O)CC2)ccc1Cl)N1CCC2(CC1)CC2)C(F)(F)F [Example 25, 1-(3-{[(2R,3R)-2-(6-Azaspiro[2.5]oct-6-yl)-4,4,4-trifluoro-3-methylbutanoyl]amino}-4-chlorobenzyl)cyclopropanecarboxylic acid]
- Effect of the haem-dependent sGC inhibitor ODQ on the activity of the sGC activator ([2]; with ODQ, haem-containing sGC): not blocked but, in contrast, even enhanced
